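Growth conditions: 96-well plates. Treatment: test compound, 48 hours, 5 concentrations. Analysis: linear interpolation between bracketing concentrations; unreached endpoints set to highest concentration. Abbreviation: GI50, concentration required for 50% inhibition of growth.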 Calls of active or inactive are those of the source. No stated cut-off is given here; in the data, active = GI50 up to about 1.1 µM and inactive = higher.
Columns and labels:
Assay in all cases: NCI-60 cell line screen, 48 h
786-0 = test system: 786-0
A498 = test system: A498
A549 = test system: A549
ACHN = test system: ACHN
BT-549 = test system: BT-549
CAKI-1 = test system: CAKI-1
CCRF-CEM = test system: CCRF-CEM
COLO 205 = test system: COLO 205
DU-145 = test system: DU-145
EKVX = test system: EKVX
HCC 2998 = test system: HCC 2998
HCT-116 = test system: HCT-116
HCT-15 = test system: HCT-15
HL-60 = test system: HL-60
HOP-62 = test system: HOP-62
HOP-92 = test system: HOP-92
HT-29 = test system: HT-29
Hs-578T = test system: Hs-578T
IGROV-1 = test system: IGROV-1
KM12 = test system: KM12
LOX IMVI = test system: LOX IMVI
M14 = test system: M14
MCF7 = test system: MCF7
MDA-MB-231 = test system: MDA-MB-231
MDA-MB-435 = test system: MDA-MB-435
MDA-N = test system: MDA-N
MOLT-4 = test system: MOLT-4
Malme-3M = test system: Malme-3M
NCI-H226 = test system: NCI-H226
NCI-H23 = test system: NCI-H23
NCI-H460 = test system: NCI-H460
NCI-H522 = test system: NCI-H522
NCI/ADR-RES = test system: NCI/ADR-RES
OVCAR-3 = test system: OVCAR-3
OVCAR-4 = test system: OVCAR-4
OVCAR-5 = test system: OVCAR-5
OVCAR-8 = test system: OVCAR-8
PC-3 = test system: PC-3
RPMI-8226 = test system: RPMI-8226
RXF 393 = test system: RXF 393
SF-268 = test system: SF-268
SF-295 = test system: SF-295
SF-539 = test system: SF-539
SK-MEL-28 = test system: SK-MEL-28
SK-MEL-2 = test system: SK-MEL-2
SK-MEL-5 = test system: SK-MEL-5
SK-OV-3 = test system: SK-OV-3
SN12C = test system: SN12C
SNB-75 = test system: SNB-75
SR = test system: SR
SW-620 = test system: SW-620
T47D = test system: T47D
TK-10 = test system: TK-10
U-251 = test system: U-251
UACC-257 = test system: UACC-257
UACC-62 = test system: UACC-62
UO-31 = test system: UO-31
K562 = test system: K562
SNB-19 = test system: SNB-19

Question: With `CCOc1ccccc1/N=N/C1C(=O)N(C(=O)CC(=O)Nc2ccccc2Cl)N=C1C` (stereo not drawn) as the compound, how does the GI50 (786-0) read?
Answer: > 100 µM (inactive)

Question: And the GI50 (A498)?
Answer: 50.1 µM (inactive)

Question: And the GI50 (A549)?
Answer: > 100 µM (inactive)

Question: What about the GI50 (ACHN) of the same compound?
Answer: > 100 µM (inactive)

Question: And the GI50 (BT-549)?
Answer: 78.7 µM (inactive)

Question: And the GI50 (CAKI-1)?
Answer: > 100 µM (inactive)

Question: And the GI50 (CCRF-CEM)?
Answer: 68.7 µM (inactive)

Question: What about the GI50 (COLO 205) of the same compound?
Answer: > 100 µM (inactive)

Question: And the GI50 (DU-145)?
Answer: > 100 µM (inactive)

Question: What about the GI50 (EKVX) of the same compound?
Answer: 3.86 µM (inactive)

Question: And the GI50 (HCC 2998)?
Answer: > 100 µM (inactive)

Question: What about the GI50 (HCT-116) of the same compound?
Answer: 87.3 µM (inactive)

Question: What about the GI50 (HCT-15) of the same compound?
Answer: 26.9 µM

Question: What about the GI50 (HL-60) of the same compound?
Answer: 32.8 µM (inactive)

Question: And the GI50 (HOP-62)?
Answer: 27.9 µM (inactive)

Question: And the GI50 (HOP-92)?
Answer: 20.3 µM (inactive)

Question: And the GI50 (HT-29)?
Answer: > 100 µM (inactive)

Question: And the GI50 (Hs-578T)?
Answer: 22.4 µM (inactive)

Question: And the GI50 (IGROV-1)?
Answer: 64.6 µM (inactive)

Question: What about the GI50 (KM12) of the same compound?
Answer: > 100 µM (inactive)

Question: And the GI50 (LOX IMVI)?
Answer: 43.7 µM (inactive)

Question: And the GI50 (M14)?
Answer: > 100 µM (inactive)

Question: What about the GI50 (MCF7) of the same compound?
Answer: > 100 µM (inactive)

Question: What about the GI50 (MDA-MB-231) of the same compound?
Answer: 97.9 µM (inactive)

Question: And the GI50 (MDA-MB-435)?
Answer: > 100 µM (inactive)

Question: What about the GI50 (MDA-N) of the same compound?
Answer: > 100 µM (inactive)

Question: What about the GI50 (MOLT-4) of the same compound?
Answer: > 100 µM (inactive)

Question: What about the GI50 (Malme-3M) of the same compound?
Answer: > 100 µM (inactive)

Question: And the GI50 (NCI-H226)?
Answer: > 100 µM (inactive)

Question: What about the GI50 (NCI-H23) of the same compound?
Answer: > 100 µM (inactive)

Question: And the GI50 (NCI-H460)?
Answer: 40.2 µM (inactive)

Question: And the GI50 (NCI-H522)?
Answer: > 100 µM (inactive)

Question: What about the GI50 (NCI/ADR-RES) of the same compound?
Answer: 89.3 µM (inactive)

Question: What about the GI50 (OVCAR-3) of the same compound?
Answer: 55.3 µM (inactive)

Question: And the GI50 (OVCAR-4)?
Answer: 71 µM (inactive)

Question: And the GI50 (OVCAR-5)?
Answer: > 100 µM (inactive)

Question: And the GI50 (OVCAR-8)?
Answer: 88.3 µM (inactive)

Question: And the GI50 (PC-3)?
Answer: 94.4 µM (inactive)

Question: What about the GI50 (RPMI-8226) of the same compound?
Answer: 27.2 µM (inactive)

Question: What about the GI50 (RXF 393) of the same compound?
Answer: > 100 µM (inactive)

Question: And the GI50 (SF-268)?
Answer: 33.7 µM (inactive)

Question: And the GI50 (SF-295)?
Answer: 37.6 µM (inactive)

Question: What about the GI50 (SF-539) of the same compound?
Answer: > 100 µM (inactive)

Question: And the GI50 (SK-MEL-28)?
Answer: > 100 µM (inactive)

Question: What about the GI50 (SK-MEL-2) of the same compound?
Answer: > 100 µM (inactive)

Question: What about the GI50 (SK-MEL-5) of the same compound?
Answer: > 100 µM (inactive)

Question: And the GI50 (SK-OV-3)?
Answer: 26.9 µM (inactive)

Question: What about the GI50 (SN12C) of the same compound?
Answer: > 100 µM (inactive)

Question: What about the GI50 (SNB-75) of the same compound?
Answer: 42.2 µM (inactive)

Question: What about the GI50 (SR) of the same compound?
Answer: 78.7 µM (inactive)

Question: And the GI50 (SW-620)?
Answer: > 100 µM (inactive)

Question: And the GI50 (T47D)?
Answer: > 100 µM (inactive)

Question: What about the GI50 (TK-10) of the same compound?
Answer: 81.8 µM (inactive)

Question: And the GI50 (U-251)?
Answer: 42.7 µM (inactive)

Question: And the GI50 (UACC-257)?
Answer: > 10 µM (inactive)

Question: What about the GI50 (UACC-62) of the same compound?
Answer: 56 µM (inactive)

Question: And the GI50 (UO-31)?
Answer: 47.4 µM (inactive)

Question: With `C[N+](C)(C)c1ccc(C(N)C(=O)O)cc1` (stereo not drawn) as the compound, how does the GI50 (786-0) read?
Answer: > 100 µM (inactive)

Question: And the GI50 (A498)?
Answer: > 100 µM (inactive)

Question: What about the GI50 (ACHN) of the same compound?
Answer: > 100 µM (inactive)

Question: What about the GI50 (BT-549) of the same compound?
Answer: > 100 µM (inactive)

Question: What about the GI50 (CAKI-1) of the same compound?
Answer: > 100 µM (inactive)

Question: What about the GI50 (CCRF-CEM) of the same compound?
Answer: > 100 µM (inactive)

Question: What about the GI50 (COLO 205) of the same compound?
Answer: > 100 µM (inactive)

Question: And the GI50 (DU-145)?
Answer: > 100 µM (inactive)

Question: What about the GI50 (EKVX) of the same compound?
Answer: > 100 µM (inactive)

Question: What about the GI50 (HCC 2998) of the same compound?
Answer: > 100 µM (inactive)

Question: And the GI50 (HCT-116)?
Answer: > 100 µM (inactive)

Question: And the GI50 (HCT-15)?
Answer: > 100 µM

Question: What about the GI50 (HL-60) of the same compound?
Answer: 43.7 µM (inactive)

Question: What about the GI50 (HOP-62) of the same compound?
Answer: > 100 µM (inactive)

Question: What about the GI50 (HOP-92) of the same compound?
Answer: > 100 µM (inactive)

Question: What about the GI50 (HT-29) of the same compound?
Answer: > 100 µM (inactive)

Question: And the GI50 (Hs-578T)?
Answer: > 100 µM (inactive)

Question: What about the GI50 (IGROV-1) of the same compound?
Answer: > 100 µM (inactive)

Question: And the GI50 (K562)?
Answer: > 100 µM (inactive)

Question: What about the GI50 (KM12) of the same compound?
Answer: > 100 µM (inactive)

Question: And the GI50 (LOX IMVI)?
Answer: > 100 µM (inactive)

Question: And the GI50 (M14)?
Answer: > 100 µM (inactive)

Question: What about the GI50 (MCF7) of the same compound?
Answer: > 100 µM (inactive)

Question: What about the GI50 (MDA-MB-231) of the same compound?
Answer: > 100 µM (inactive)

Question: What about the GI50 (MDA-MB-435) of the same compound?
Answer: > 100 µM (inactive)

Question: What about the GI50 (MDA-N) of the same compound?
Answer: > 100 µM (inactive)

Question: And the GI50 (Malme-3M)?
Answer: > 100 µM (inactive)

Question: And the GI50 (NCI-H226)?
Answer: > 100 µM (inactive)

Question: And the GI50 (NCI-H23)?
Answer: > 100 µM (inactive)

Question: What about the GI50 (NCI-H460) of the same compound?
Answer: > 100 µM (inactive)

Question: What about the GI50 (NCI-H522) of the same compound?
Answer: > 100 µM (inactive)

Question: And the GI50 (NCI/ADR-RES)?
Answer: > 100 µM (inactive)

Question: And the GI50 (OVCAR-3)?
Answer: > 100 µM (inactive)

Question: What about the GI50 (OVCAR-4) of the same compound?
Answer: > 100 µM (inactive)

Question: And the GI50 (OVCAR-5)?
Answer: > 100 µM (inactive)

Question: And the GI50 (OVCAR-8)?
Answer: > 100 µM (inactive)

Question: What about the GI50 (PC-3) of the same compound?
Answer: > 100 µM (inactive)

Question: And the GI50 (RPMI-8226)?
Answer: > 100 µM (inactive)

Question: And the GI50 (RXF 393)?
Answer: > 100 µM (inactive)

Question: And the GI50 (SF-268)?
Answer: > 100 µM (inactive)

Question: What about the GI50 (SF-295) of the same compound?
Answer: > 100 µM (inactive)

Question: What about the GI50 (SK-MEL-28) of the same compound?
Answer: > 100 µM (inactive)

Question: And the GI50 (SK-MEL-2)?
Answer: > 100 µM (inactive)

Question: What about the GI50 (SK-MEL-5) of the same compound?
Answer: > 100 µM (inactive)

Question: What about the GI50 (SK-OV-3) of the same compound?
Answer: > 100 µM (inactive)

Question: And the GI50 (SN12C)?
Answer: > 100 µM (inactive)

Question: And the GI50 (SNB-19)?
Answer: > 100 µM (inactive)

Question: What about the GI50 (SNB-75) of the same compound?
Answer: > 100 µM (inactive)

Question: What about the GI50 (SR) of the same compound?
Answer: > 100 µM (inactive)

Question: What about the GI50 (SW-620) of the same compound?
Answer: > 100 µM (inactive)

Question: And the GI50 (T47D)?
Answer: > 100 µM (inactive)

Question: And the GI50 (TK-10)?
Answer: > 100 µM (inactive)

Question: And the GI50 (U-251)?
Answer: > 100 µM (inactive)

Question: What about the GI50 (UACC-257) of the same compound?
Answer: > 100 µM (inactive)

Question: And the GI50 (UACC-62)?
Answer: > 100 µM (inactive)

Question: And the GI50 (UO-31)?
Answer: > 100 µM (inactive)

— ChEMBL document CHEMBL1201862, “PubChem BioAssay data set” (2004)
